Results taken from patent publication US7323319B2, “RNA containing coenzymes, biotin, or fluorophores, and methods for their preparation and use” (The University of Southern Mississippi, priority 2003, dated 2008).
Read-outs that look alike come from different tables or passages of the source.

Key:
[1] = molecular target: T1, T7 RNA polymerase (Escherichia phage T7, UniProt P00573); type: biochemical; details: for effect of 3′ blocked adenosine derivatives on normal RNA transcription and on CoA-RNA transcription: 4 mM, without coenzymes or in the presence of 4 mM De-P-CoA; for relative CoA-RNA yield / total RNA yield relative to RNA obtained at 1 mM ATP and 0 mM De-P-CoA: 4 mM De-P-CoA
T1 sequence (P00573 whole entry): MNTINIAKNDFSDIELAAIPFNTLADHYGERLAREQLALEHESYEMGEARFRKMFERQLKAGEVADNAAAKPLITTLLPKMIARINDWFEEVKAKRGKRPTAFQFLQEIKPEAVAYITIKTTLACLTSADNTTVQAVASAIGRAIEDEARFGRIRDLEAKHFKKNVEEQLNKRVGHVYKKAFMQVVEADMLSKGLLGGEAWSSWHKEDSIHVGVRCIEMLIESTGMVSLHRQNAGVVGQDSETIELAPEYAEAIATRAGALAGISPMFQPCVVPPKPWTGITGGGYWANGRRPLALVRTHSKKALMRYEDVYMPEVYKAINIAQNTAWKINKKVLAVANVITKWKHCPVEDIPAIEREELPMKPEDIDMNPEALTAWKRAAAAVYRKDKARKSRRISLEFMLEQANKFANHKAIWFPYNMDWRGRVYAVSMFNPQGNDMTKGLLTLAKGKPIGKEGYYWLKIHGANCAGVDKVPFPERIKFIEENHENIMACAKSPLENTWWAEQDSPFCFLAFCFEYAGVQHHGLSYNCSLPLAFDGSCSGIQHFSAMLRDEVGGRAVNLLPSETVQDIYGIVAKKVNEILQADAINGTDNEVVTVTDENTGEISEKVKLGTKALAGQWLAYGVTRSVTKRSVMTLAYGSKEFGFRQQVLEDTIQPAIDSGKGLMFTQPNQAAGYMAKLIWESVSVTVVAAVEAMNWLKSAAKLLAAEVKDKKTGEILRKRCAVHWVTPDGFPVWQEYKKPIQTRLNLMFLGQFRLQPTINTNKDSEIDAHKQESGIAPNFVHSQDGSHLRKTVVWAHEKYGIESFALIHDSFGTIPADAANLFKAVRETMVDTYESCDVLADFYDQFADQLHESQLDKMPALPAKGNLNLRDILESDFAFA
Excerpt: To physically separate CoA-RNA from pppRNA by PAGE, a different RNA sequence of 35 nucleotides was designed to allow a specific DNazyme (Santoro, S. W. and Joyce, G. F., Proc. Natl. Acad. Sci. USA 94: 4262-4266 (1997)) cleavage after transcription. Two DNA oligonucleotides with the sequence of 5′-[…]-3′ (SEQ ID NO:2) and 5′-[…]-3′ (SEQ ID NO:3) were used to construct (by PCR) a DNA duplex template, from which a 35 nt RNA sequence of 5′-[…]-3′ (SEQ ID NO:4) was transcribed. A DNazyme (with the sequence of 5′-[…]-3′; SEQ ID NO:5) was then used to specifically cleave off a portion of the 3′ heterogeneous ends of both CoA-RNA and pppRNA, yielding a homogeneous length of 25 nt CoA-RNA and pppRNA. Similar transcription conditions were used with the exception of different concentrations of ATP. Transcribed RNA (about […]) was incubated with […] DNazyme for 60 minutes at 37° C. in 50 mM MgCl2 and 50 mM Tris, pH 8.0. RNA was then analyzed by 12% denaturing PAGE.
(§1) After polyacrylamide gel electrophoresis, individual RNA bands were visualized through phosphorimaging (Molecular Imager, Bio-Rad Laboratories, Hercules, Calif.). Quantitation of different RNA bands was achieved through profile integration after horizontal background subtraction. Coenzyme-RNA (CoE-RNA) yields were calculated based on relative intensity of pppRNA bands (N, N+1, and N+2 bands) in the absence of coenzymes. To confirm the validity of the calculation, DNazyme-cleaved pppRNA and CoA-RNA were quantitated directly after gel resolution of CoA-RNA from pppRNA. In addition, CoA-RNA yield was determined independently by thiopropyl Sepharose 6B affinity chromatography based on its free sulfhydryl group.
To physically resolve coenzyme-RNA from pppRNA by gel, a DNazyme (Santoro, S. W., and Joyce, G. F., Proc. Natl. Acad. Sci. USA, 94: 4262-4266 (1997)) was designed to trim off the 3′ heterogeneous ends of RNA.

[2] = molecular target: T1, T7 RNA polymerase; details: CoES7 RNA prepared under 1 mM ATP and 4 mM De-P-CoA
Protocol: as §1

[3] = molecular target: T1, T7 RNA polymerase; assay: Coenzyme-initiated in vitro transcription of CoES7 RNA under T7 class II promoter, PAGE and phosphorimaging; type: biochemical; details: for relative intensity of N band RNA / relative intensity of N+1 band RNA / relative intensity of N+2 band RNA: 4 mM coenzyme, 1 mM each NTP, CoES7 RNA, 2 hours 37° C.; for total RNA yields versus standard transcription conditions: higher than 8 mM coenzyme
Protocol: Transcription promoter sequence was derived from the T7 class II promoter (φ2.5) (FIG. 1) (Dunn, J. J., and Studier, F. W., J. Mol. Biol. 166: 477-535 (1983)). The RNA sequence was from a previously isolated coenzyme-synthesizing ribozyme (Huang, F., et al., Biochemistry 39: 15548-15555 (2000)), CoES7, with the sequence of 5′-[…]-3′ (SEQ ID NO:1). Transcription was carried out under the following standard conditions: 1 mM each of ATP, UTP, GTP, and CTP, 40 mM Tris (pH 8.0), 6 mM MgCl2, 2 mM spermidine, 0.01% Triton X-100, 5 mM DTT, 0.2 unit/mL RNase inhibitor, […] DNA templates, and 5 unit/mL T7 RNA polymerase. In addition, different concentrations of coenzymes, De-P-CoA, NAD, and FAD were included to initiate transcription. For quantitation purposes, [α-^32P]ATP (NEN Life Science, Boston, Mass.) was also added to transcription solutions to internally label RNA transcripts. All transcription reactions were allowed to proceed for 2 hours at 37° C. before product analysis by 8% denaturing PAGE.
Transcription of CoES7 RNA was carried out under the standard conditions, with the addition of various concentrations of coenzymes. After fractionation by PAGE, different RNA bands became clearly visible. In the absence of any coenzymes (lane 1), transcription produced three pppRNA bands in decreasing order: the full-length RNA transcripts (N band), N+1, and N+2 bands (with one and two extra nucleotides added at the 3′ end of full-length RNA). Their relative yields were 59%, 35%, and 6% (from N to N+2), respectively. When one of the three coenzymes, De-P-CoA, NAD, and FAD, was added to the transcription solution (lanes 2-4), no additional RNA bands were generated. However, the relative intensity of the three RNA bands in each lane changed considerably when compared with that of lane 1. […] In the presence of 4 mM De-P-CoA (lane 2), the relative intensity of the three bands changed to 40%, 45%, and 15% (from N to N+2). The relative RNA band intensity were 30%, 49%, and 21% for both NAD- and FAD-initiated transcription (lanes 3 and 4). These changes in RNA band relative intensity resulted from the incorporation of coenzymes (De-P-CoA, NAD, and FAD) into RNA. When one of these coenzymes is incorporated to the 5′ end of RNA, the coenzyme-linked RNA (CoE-RNA) behaves as if an extra normal nucleotide is added to the pppRNA. Therefore, the N band CoE-RNA co-migrates with the N+1 band pppRNA, while the N+1 band CoE-RNA and the N+2 band pppRNA run together in the gel. The N+2 band CoE-RNA was barely visible because of its low intensity. To confirm the incorporation of coenzymes into RNA under the class II promoter, three independent experiments were performed: resolution of CoA-RNA from pppRNA by gel after DNazyme cleavage, measurement of free sulfhydryl group of CoA-RNA, and fluorescence emission spectrum of FAD-RNA.

[4] = Fluorescence emission spectra of FAD-RNA and free FAD; type: physicochemical; details: 0.5 M sodium acetate, pH 5.2
[5] = 0.2-0.5 mM ATP and 4 mM De-P-CoA
[6] = different coenzyme concentrations (De-P-CoA: low concentrations; FAD: especially >4 mM), FIGS. 4A-4C

Nc1ncnc2c1ncn2[C@@H]1O[C@H](CO)[C@@H](OP(=O)(O)O)[C@H]1O [3′ AMP]
effect of 3′ blocked adenosine derivatives on normal RNA transcription and on CoA-RNA transcription [1]: neither CoA nor 3′ AMP has detectable effect

CC(C)(COP(=O)(O)OP(=O)(O)OC[C@H]1O[C@@H](n2cnc3c(N)ncnc32)[C@H](O)[C@@H]1OP(=O)(O)O)[C@@H](O)C(=O)NCCC(=O)NCCS [CoA, coenzyme A]
effect of 3′ blocked adenosine derivatives on normal RNA transcription and on CoA-RNA transcription [1]: neither CoA nor 3′ AMP has detectable effect

CC(C)(COP(=O)(O)OP(=O)(O)OC[C@H]1O[C@@H](n2cnc3c(N)ncnc32)[C@H](O)[C@@H]1O)[C@@H](O)C(=O)NCCC(=O)NCCS [De-P-CoA, 3′-Dephospho coenzyme A]
relative CoA-RNA yield ([1]; 0.1 mM ATP): 56% | total RNA yield relative to RNA obtained at 1 mM ATP and 0 mM De-P-CoA ([1]; 0.1 mM ATP): 12% | relative CoA-RNA yield ([1]; 0.2 mM ATP): 52% | total RNA yield relative to RNA obtained at 1 mM ATP and 0 mM De-P-CoA ([1]; 0.2 mM ATP): 44% | relative CoA-RNA yield ([1]; 0.5 mM ATP): 46% | total RNA yield relative to RNA obtained at 1 mM ATP and 0 mM De-P-CoA ([1]; 0.5 mM ATP): 85% | total RNA yield relative to RNA obtained at 1 mM ATP and 0 mM De-P-CoA ([1]; 1 mM ATP): 110% | relative CoA-RNA yield ([1]; 1 mM ATP, 1 mM GTP, CTP, UTP): 33% | CoA-RNA produced by transcription [1, 5]: over 50% | reduction in total RNA yields [1, 5]: 20-50% | loaded RNA retained on thiopropyl Sepharose 6B column (CoA-RNA yield) [2]: 30-35% | relative intensity of N band RNA [3]: 40% | relative intensity of N+1 band RNA [3]: 45% | relative intensity of N+2 band RNA [3]: 15% | coenzyme-RNA (CoE-RNA) yield over total RNA synthesized ([3]; 4-8 mM coenzyme, standard transcription conditions): 30-35% | effect on total RNA yield (transcription) [3, 6]: stimulates transcription to some extent | effect on total RNA yield (transcription) ([3]; higher concentrations of De-P-CoA): eventually becomes inhibitory | total RNA yields versus standard transcription conditions [3]: significantly lower

Cc1cc2nc3c(=O)[nH]c(=O)nc-3n(C[C@H](O)[C@H](O)[C@H](O)COP(=O)(O)OP(=O)(O)OC[C@H]3O[C@@H](n4cnc5c(N)ncnc54)[C@H](O)[C@@H]3O)c2cc1C [FAD, flavin adenine dinucleotide]
relative intensity of N band RNA [3]: 30% | relative intensity of N+1 band RNA [3]: 49% | relative intensity of N+2 band RNA [3]: 21% | effect on total RNA yield (transcription) [3, 6]: somewhat inhibitory effect | total RNA yields versus standard transcription conditions [3]: significantly lower | enhancement of fluorescence intensity by urea ([4]; 4 M urea): 1.7 fold | enhancement of fluorescence intensity by urea ([4]; 7 M urea): 2.7 fold
